The text below walks through data of patent US20250345295A1, “LMK235 COMPOSITIONS AND METHODS” (UNM Rainforest Innovations, priority 2024, published 2025).

The series relates to mice. The series is described as follows: Conditioned place preference (CPP) test of addictive potential. In kind it is in vivo, mouse. The note with it: 5 mg/kg, three conditioning days. An excerpt:
The conditioned place preference (CPP) test was used to compare morphine and LMK235 post-drug behaviors to baseline. Time spent in their assigned drug administration chamber post-drug was divided by the time spent in the chamber during the baseline recording. A score of 1 meant that there was no difference in time spent in either chamber after dosing. A score greater than 1 meant more time was spent in the assigned drug chamber, and a score less than 1 meant less time was spent in the assigned drug chamber.
Mice were assigned either vehicle, morphine (5 mg/kg) or LMK235 (5 mg/kg) and assigned cubicle designation for groups (n=3) as follows: Vehicle-Blank, Vehicle-Striped, Morphine-Blank, Morphine-Striped, LMK-Blank, LMK-Striped. For baseline collection, mice were placed in the middle of the box and allowed access to both chambers for 15 minutes. Time spent in each chamber was recorded. For the subsequent three test days, mice were injected with their assigned drug and placed in their assigned chamber, without access to the other chamber, for 30 minutes. On the final test day, mice were placed in the middle of the box and allowed access to both chambers for 15 minutes. Time spent in each chamber was recorded.

The structures appear in SMILES notation.

In the case of `CN1CC[C@]23c4c5ccc(O)c4O[C@H]2[C@@H](O)C=C[C@H]3[C@H]1C5` [morphine], the “time in assigned drug chamber post-drug versus baseline (addictive potential)” value is reported as “spent more time in their assigned drug chamber”.
